The structures appear in SMILES notation.

What all share (assay type): cell-based
One assay deals with RAR gamma. In words: RAR gamma agonist assay (SelectScreen GeneBLAzer, UAS-bla HEK 293T). On the procedure: (§1) An agonist assay for RAR was performed by SelectScreen® Cell-Based Nuclear Receptor Profiling Service of Life Technologies. In this assay, an engineered cell line (UAS-bla HEK 293T) expressing RARalpha, RARbeta or RAR gamma is used to test the action of lutein. GeneBLAzer® technology, based on mammalian-optimized Beta-lactamase reporter gene (bla) combined with a FRET-enabled substrate, provides the assay with a sensitive detection method. […] The plate is incubated for 16-24 hours at 37° C./5% CO2 in a humidified incubator. 8 μL of 1 μM Substrate Loading Solution is added to each well and the plate is incubated for 2 hours at room temperature. The plate is read on a fluorescence plate reader.

The test system of the next assay is RARbeta. As to the kind of experiment: RAR beta agonist assay (SelectScreen GeneBLAzer, UAS-bla HEK 293T). The procedure:
as §1

The next assay deals with RARalpha. In words: RAR alpha agonist assay (SelectScreen GeneBLAzer, UAS-bla HEK 293T). On the procedure: as §1
Setting [1] is: at any concentration below 3.2 μM.

As for `CC1=C(/C=C/C(C)=C/C=C/C(C)=C/C(=O)O)C(C)(C)CCC1` [ATRA, reference compound], the EC50 was determined as 0.131 nM with RAR gamma (RAR-gamma-UAS-bla HEK 293T, FIG. 4, read-out: EC50 (control agonist, RAR gamma)); 0.46 nM with RARbeta (RAR-beta-UAS-bla HEK 293T, FIG. 3, read-out: EC50 (control agonist, RAR beta)); […] in the assay with RARalpha (RAR-alpha-UAS-bla HEK 293T, FIG. 2, read-out: EC50 (control agonist, RAR alpha)).
For the compound `CC1=C[C@H](O)CC(C)(C)[C@H]1/C=C/C(C)=C/C=C/C(C)=C/C=C/C=C(C)/C=C/C=C(C)/C=C/C1=C(C)C[C@@H](O)CC1(C)C` [Lutein, (1R,4R)-4-{(1E,3E,5E,7E,9E,11E,13E,15E,17E)-18-[(4R)-4-Hydroxy-2,6,6-trimethylcyclohex-1-en-1-yl]-3,7,12,16-tetramethyloctadeca-1,3,5,7,9,11,13,15,17-nonaen-1-yl}-3,5,5-trimethylcyclohex-2-en-1-ol], the “agonist effect on RAR gamma” value in the assay with RAR gamma (setting [1]) is given as “No agonist effect”. The “concentrations at which a specific RAR-beta partial agonist effect could be measured” value in the assay on RARbeta (RAR-beta-UAS-bla HEK 293T) is on record as “above 100 nm”. In the assay on RARbeta (at 3.16 μM), the RAR-beta activation was around 40%. The “agonist effect on RAR alpha” value with RARalpha (setting [1]) is given as “No agonist effect”.
